Reference: ChEMBL document CHEMBL4382244, “QSAR of 1,4-benzoxazin-3-one antimicrobials and their drug design perspectives” (2018)
Converted amounts (≈) assume the structure as drawn.

Assays:
Type in all cases: functional
[1] = test system: Staphylococcus aureus; assay: Antibacterial activity against Staphylococcus aureus ATCC 25923 after 24 hrs by disk diffusion method; details: ATCC 25923, 24 h
[2] = test system: Escherichia coli; assay: Antibacterial activity against Escherichia coli ATCC 25922 after 24 hrs by disk diffusion method; details: ATCC 25922, 24 h
[3] = test system: Candida albicans; assay: Antifungal activity against Candida albicans after 24 hrs by disk diffusion method
[4] = test system: Candida albicans; assay: Antifungal activity against Candida albicans after 24 hrs by spectrophotometric method
[5] = test system: Candida albicans; assay: Antifungal activity against Candida albicans
[6] = test system: Pseudomonas aeruginosa; assay: Antibacterial activity against Pseudomonas aeruginosa ATCC 10145 after 16 to 20 hrs by microdilution method
[7] = test system: Staphylococcus aureus; assay: Antibacterial activity against Staphylococcus aureus ATCC 29213 after 16 to 20 hrs by microdilution method
[8] = test system: Bacillus subtilis; assay: Antibacterial activity against Bacillus subtilis
[9] = test system: Staphylococcus aureus; assay: Antibacterial activity against Staphylococcus aureus
[10] = test system: Klebsiella pneumoniae; assay: Antibacterial activity against Klebsiella pneumoniae RSKK 576 after 16 to 20 hrs by microdilution method
[11] = test system: Enterococcus faecalis; assay: Antibacterial activity against Enterococcus faecalis ATCC 29212 after 16 to 20 hrs by microdilution method
[12] = test system: Escherichia coli; assay: Antibacterial activity against Escherichia coli
[13] = test system: Escherichia coli; assay: Antibacterial activity against Escherichia coli ATCC 25922 after 16 to 20 hrs by microdilution method
[14] = test system: Pseudomonas aeruginosa; assay: Antibacterial activity against Pseudomonas aeruginosa
[15] = test system: Pichia kudriavzevii; assay: Antifungal activity against Candida krusei ATCC 6258 by micro-dilution method
[16] = test system: Saccharomyces cerevisiae; assay: Antifungal activity against Saccharomyces cerevisiae ATCC 9763 by micro-dilution method
[17] = test system: Candida albicans; assay: Antifungal activity against Candida albicans CA-6 by micro-dilution method

SMILES	MIC [1] [µM]	MIC [3] [µM]	MIC [4] [µM]	MIC [6] [µM]	MIC [7] [µM]	MIC [10] [µM]	MIC [11] [µM]	MIC [13] [µM]	other results
CCOC(=O)CC1Oc2ccc(C)cc2NC1=O (stereo not given)	–	–	–	457 (≈ 114 µg/mL)	914 (≈ 228 µg/mL)	457 (≈ 114 µg/mL)	457 (≈ 114 µg/mL)	457 (≈ 114 µg/mL)	MIC [5]: 89.2 µM (≈ 22.2 µg/mL); MIC [8]: 89.2 µM (≈ 22.2 µg/mL); MIC [9]: 89.2 µM (≈ 22.2 µg/mL); MIC [12]: 89.2 µM (≈ 22.2 µg/mL); MIC [14]: 178 µM (≈ 44.5 µg/mL)
N#Cc1ccc2c(c1)OC(O)C(=O)N2O (stereo not given)	7280 (≈ 1500 µg/mL)	7280 (≈ 1500 µg/mL)	–	–	–	–	–	–	–
CCOC(=O)CC1Oc2cc([N+](=O)[O-])ccc2NC1=O (stereo not given)	–	–	–	–	–	–	–	–	MIC [5]: 121 µM (≈ 33.8 µg/mL); MIC [8]: 241 µM (≈ 67.6 µg/mL); MIC [9]: 121 µM (≈ 33.8 µg/mL); MIC [12]: 241 µM (≈ 67.6 µg/mL); MIC [14]: 121 µM (≈ 33.8 µg/mL)
CCOC(=O)CC1Oc2cccc([N+](=O)[O-])c2NC1=O (stereo not given)	–	–	–	457 (≈ 128 µg/mL)	914 (≈ 256 µg/mL)	457 (≈ 128 µg/mL)	457 (≈ 128 µg/mL)	457 (≈ 128 µg/mL)	–
CCOC(=O)CC1Oc2ccc(C(O)Cn3ccnc3)cc2N(C)C1=O (stereo not given)	–	–	–	–	–	–	–	–	MIC [15]: 39.2 µM (≈ 14.1 µg/mL); MIC [16]: 19.6 µM (≈ 7.04 µg/mL); MIC [17]: 39.2 µM (≈ 14.1 µg/mL)
CCOC(=O)CC1Oc2cc(C)ccc2NC1=O (stereo not given)	–	–	–	–	–	–	–	–	MIC [8]: 303 µM (≈ 75.5 µg/mL); MIC [9]: 303 µM (≈ 75.5 µg/mL); MIC [12]: 151 µM (≈ 37.7 µg/mL); MIC [14]: 151 µM (≈ 37.7 µg/mL)
COc1ccc2c(c1)OC(O)C(=O)N2 (stereo not given)	–	–	5120 (≈ 1000 µg/mL)	–	–	–	–	–	–
CCOC(=O)CC1Oc2ccc(Cl)cc2NC1=O (stereo not given)	–	–	–	949 to 1030 (≈ 256 to 277 µg/mL)	949 to 1030 (≈ 256 to 277 µg/mL)	949 to 1030 (≈ 256 to 277 µg/mL)	949 to 1030 (≈ 256 to 277 µg/mL)	949 to 1030 (≈ 256 to 277 µg/mL)	MIC [5]: 100 µM (≈ 27 µg/mL); MIC [8]: 201 µM (≈ 54.1 µg/mL); MIC [9]: 201 µM (≈ 54.1 µg/mL); MIC [12]: 100 µM (≈ 27 µg/mL); MIC [14]: 100 µM (≈ 27 µg/mL)
COC(=O)c1ccc2c(c1)OC(O)C(=O)N2 (stereo not given)	–	–	4480 (≈ 1000 µg/mL)	–	–	–	–	–	–
Cc1ccc2c(c1)OCC(=O)N2O	1860 (≈ 333 µg/mL)	1860 (≈ 333 µg/mL)	1950 (≈ 350 µg/mL)	–	–	–	–	–	MIC [2]: 2790 µM (≈ 500 µg/mL)
O=C1C(O)Oc2cc([N+](=O)[O-])ccc2N1O (stereo not given)	734 (≈ 166 µg/mL)	6630 (≈ 1500 µg/mL)	–	–	–	–	–	–	MIC [2]: 3680 µM (≈ 833 µg/mL)
CCOC(=O)CC1Oc2ccc(-c3ccccc3)cc2NC1=O (stereo not given)	–	–	–	411 (≈ 128 µg/mL)	411 (≈ 128 µg/mL)	411 (≈ 128 µg/mL)	206 (≈ 64 µg/mL)	411 (≈ 128 µg/mL)	–
CC(=O)ON1C(=O)C(O)Oc2ccccc21 (stereo not given)	–	–	2980 (≈ 666 µg/mL)	–	–	–	–	–	–
CCOC(=O)CC1Oc2ccc(S(=O)(=O)CC)cc2NC1=O (stereo not given)	–	–	–	391 (≈ 128 µg/mL)	782 (≈ 256 µg/mL)	391 (≈ 128 µg/mL)	391 (≈ 128 µg/mL)	391 (≈ 128 µg/mL)	–
CCOC(=O)CC1Oc2ccc(C(Cn3ccnc3)OCc3ccc(Cl)cc3)cc2N(C)C1=O (stereo not given)	–	–	–	–	–	–	–	–	MIC [15]: 114 µM (≈ 55.3 µg/mL); MIC [16]: 915 µM (≈ 443 µg/mL); MIC [17]: 915 µM (≈ 443 µg/mL)
CCOC(=O)CC1Oc2cc([N+](=O)[O-])ccc2N(C)C1=O (stereo not given)	–	–	–	949 (≈ 279 µg/mL)	949 (≈ 279 µg/mL)	949 (≈ 279 µg/mL)	949 (≈ 279 µg/mL)	949 (≈ 279 µg/mL)	MIC [5]: 46.4 µM (≈ 13.7 µg/mL); MIC [8]: 185 µM (≈ 54.6 µg/mL); MIC [9]: 185 µM (≈ 54.6 µg/mL); MIC [12]: 92.7 µM (≈ 27.3 µg/mL); MIC [14]: 92.7 µM (≈ 27.3 µg/mL)
CCOC(=O)CC1Oc2ccc([N+](=O)[O-])cc2NC1=O (stereo not given)	–	–	–	457 (≈ 128 µg/mL)	914 (≈ 256 µg/mL)	457 (≈ 128 µg/mL)	457 (≈ 128 µg/mL)	457 (≈ 128 µg/mL)	–
O=C1COc2ccccc2N1	–	–	6700 (≈ 1000 µg/mL)	–	–	–	–	–	–

The next lines start with results.

MIC [1] [µM]	MIC [3] [µM]	MIC [4] [µM]	MIC [6] [µM]	MIC [7] [µM]	MIC [10] [µM]	MIC [11] [µM]	MIC [13] [µM]	SMILES	other results
2020 (≈ 333 µg/mL)	2020 (≈ 333 µg/mL)	2120 (≈ 350 µg/mL)	–	–	–	–	–	O=C1COc2ccccc2N1O	MIC [2]: 7570 µM (≈ 1250 µg/mL)
1580 (≈ 333 µg/mL)	2370 (≈ 500 µg/mL)	2370 (≈ 500 µg/mL)	–	–	–	–	–	COc1ccc2c(c1)OC(O)C(=O)N2O (stereo not given)	MIC [2]: 3150 µM (≈ 666 µg/mL)
3410 (≈ 666 µg/mL)	850 (≈ 166 µg/mL)	768 (≈ 150 µg/mL)	–	–	–	–	–	COc1ccc2c(c1)OCC(=O)N2O	MIC [2]: 6400 µM (≈ 1250 µg/mL)
2560 (≈ 500 µg/mL)	3410 (≈ 666 µg/mL)	3330 (≈ 650 µg/mL)	–	–	–	–	–	COC1Oc2ccccc2N(O)C1=O (stereo not given)	–
–	–	–	1030 (≈ 256 µg/mL)	1030 (≈ 256 µg/mL)	1030 (≈ 256 µg/mL)	1030 (≈ 256 µg/mL)	1030 (≈ 256 µg/mL)	CCOC(=O)CC1Oc2cccc(C)c2NC1=O (stereo not given)	–
–	–	–	1030 (≈ 257 µg/mL)	1030 (≈ 257 µg/mL)	1030 (≈ 257 µg/mL)	1030 (≈ 257 µg/mL)	1030 (≈ 257 µg/mL)	CCOC(=O)CC1Oc2cc(N)ccc2NC1=O (stereo not given)	MIC [5]: 100 µM (≈ 25.1 µg/mL); MIC [8]: 201 µM (≈ 50.2 µg/mL); MIC [9]: 201 µM (≈ 50.2 µg/mL); MIC [12]: 201 µM (≈ 50.2 µg/mL); MIC [14]: 201 µM (≈ 50.2 µg/mL)
–	–	–	544 (≈ 113 µg/mL)	1090 (≈ 225 µg/mL)	1090 (≈ 225 µg/mL)	1090 (≈ 225 µg/mL)	1090 (≈ 225 µg/mL)	O=C(O)CC1Oc2ccccc2NC1=O (stereo not given)	MIC [5]: 106 µM (≈ 22 µg/mL); MIC [8]: 212 µM (≈ 44 µg/mL); MIC [9]: 106 µM (≈ 22 µg/mL); MIC [12]: 212 µM (≈ 44 µg/mL); MIC [14]: 212 µM (≈ 44 µg/mL)
–	–	–	407 (≈ 125 µg/mL)	814 (≈ 250 µg/mL)	407 (≈ 125 µg/mL)	407 (≈ 125 µg/mL)	407 (≈ 125 µg/mL)	CCOC(=O)CC1Oc2ccc(C(=O)OCC)cc2NC1=O (stereo not given)	MIC [5]: 39.7 µM (≈ 12.2 µg/mL); MIC [8]: 79.4 µM (≈ 24.4 µg/mL); MIC [9]: 159 µM (≈ 48.8 µg/mL); MIC [12]: 79.4 µM (≈ 24.4 µg/mL); MIC [14]: 159 µM (≈ 48.8 µg/mL)
–	–	–	1010 (≈ 256 µg/mL)	1010 (≈ 256 µg/mL)	1010 (≈ 256 µg/mL)	1010 (≈ 256 µg/mL)	1010 (≈ 256 µg/mL)	CCOC(=O)CC1Oc2ccc(F)cc2NC1=O (stereo not given)	–
2560 (≈ 500 µg/mL)	3410 (≈ 666 µg/mL)	–	–	–	–	–	–	Cc1ccc2c(c1)OC(O)C(=O)N2O (stereo not given)	MIC [2]: 3410 µM (≈ 666 µg/mL)
2760 (≈ 500 µg/mL)	3680 (≈ 666 µg/mL)	3680 (≈ 666 µg/mL)	–	–	–	–	–	O=C1C(O)Oc2ccccc2N1O (stereo not given)	MIC [2]: 6900 µM (≈ 1250 µg/mL)
1820 (≈ 333 µg/mL)	2730 (≈ 500 µg/mL)	2730 (≈ 500 µg/mL)	–	–	–	–	–	O=C1COc2cc(F)ccc2N1O [7-F-D-DIBOA]	MIC [2]: 4550 µM (≈ 833 µg/mL)
4480 (≈ 1000 µg/mL)	–	–	–	–	–	–	–	COC(=O)c1ccc2c(c1)OCC(=O)N2O [7-MeOCO-D-DIBOA]	–
